In US9296719B2, “Compositions and methods for the treatment of norovirus infection” (Indiana University Research and Technology Corporation, priority 2011, dated 2016):
pEC50: −log10 of the molar value. “Also recorded” adds a separate entry of the source. Where two headings read alike, the source gives them in different places.

How the values were obtained:
[1] = test system: recombinant GII.4 polymerase (NV RdRp); experiment: Differential scanning fluorimetry (DSF) binding to recombinant NV polymerase; set-up: species or system Human Norovirus
Source text: Differential Scanning Fluorimetry (DSF)
This method is used to examine the binding of proteins to drugs (31). The principle for the assay is that the thermal denaturation profile of the protein could be changed when it is complexed to the drug. To perform the assay, thermal melting curves of NV RdRp in the presence of inhibitors were obtained in 96-well plates using Stratagene Mx3005P Q-PCR system (Agilent Tachnologies, USA) and the fluorescent dye SYPRO Orange (Invitrogen, Carlsbad, Calif.). To evaluate the binding affinities of inhibitors, different concentrations of various drugs like VX-222, Filibuvir and Ribavirin were mixed with 20 μM purified NV RdRp and 5× concentration of SYPRO Orange. A heating rate of 1.0° C. per min was used from 25 to 90° C., and fluorescence intensity was read at excitation and emission wavelengths of 470 and 550 nm, respectively. Each sample was tested in triplicate, and the results were duplicated in at least two independent assays.

GII.4 NV polymerase = experiment: 5BR reporter assay, GII.4 polymerase; type: cell-based, Human Norovirus; details: for effect on GII.4 polymerase 5BR assay readout (screen): re-screened at 10 and 20 μM final concentrations, FIG. 6A
Experimental: (§1) The 5BR reporter assay to measure the activity of the Norovirus polymerase and other viral polymerases was performed as per Ranjith-Kumar et al. (32). The assay could also be performed with other viral proteins, such as VPg or VP1. Briefly, plasmids expressing RdRp and VPg were co-transfected along with plasmids to express RIG-I or MDA5, as well as the firefly and Renilla luciferase reporters. HEK293T or Huh 7 cells were transfected using Lipofectamine 2000 (Invitrogen, Carlsbad, Calif.) according to the manufacturer's instructions. 24 h prior to transfection, 0.75×10^5 cells were seeded into each well of Costar 96-well plates in DMEM containing 10% FBS. Cells were then typically transfected at 75% confluency with plasmid amounts detailed in the figure legends and complexed with Lipofectamine 2000 as per the manufacturer's instructions (Invitrogen, USA). Vector plasmid (pUNO-MCS) was used to maintain a constant total plasmid DNA per well. To examine the VPg effect on NV RdRp-RIG-I signaling, 293T cells were co-transfected with plasmids expressing RdRp and VPg. At 36 h after transfection, luciferase activity was measured using Dual-Glo Luciferase Assay System (Promega, Madison, Wis.) in Synergy 2 microplate reader (BioTek, Winooski, Vt.).
Where inhibitors were added to the cells for the 5BR assay, they were added 2 h after transfection of the plasmids.
We have previously developed an easily manipulative, cell-based assay to assess RNA synthesis by viral polymerases. The 5BR assay was validated for the 1b HCV polymerase (NS5B) and has since been established for several other viruses that cannot infect cultured human cells (32 and data not shown). The assay works by having the viral polymerase synthesize RNAs, which then act as agonists to activate RIG-I and/or MDA5. Receptor activation induces Firefly luciferase reporter expression which is driven by the interferon beta promoter (FIG. 2A). A Renilla luciferase is expressed in the same cells to report on the transfection efficiency and possible cytopathic effects. The polymerase from the GII.4 strain of Norwalk virus is the prototype in our assay.
The 5BR assay format has been validated for studies of nonnucleoside and nucleoside inhibitors (NNI, NI, respectively) of the 1b and 2a HCV polymerase and how resistant mutations can prevent inhibition (32). Using this format, we performed a proof-of-concept screen for inhibitor of the GII.4 polymerase. […] The hits were re-screened at 10 and 20 μM final concentrations (FIG. 6A). […] This is consistent with the results of Chang et al., (18) although Ribavirin is known to have pleiotropic effects on cellular as well as viral processes (66).

MNV polymerase = molecular target: T1, MNV polymerase (Norovirus, UniProt Q80J95); experiment: 5BR reporter assay, MNV polymerase; type: cell-based, Mouse norovirus; details: 5BR assay; read-out: EC50, inhibition of MNV polymerase
T1 construct: NS7, the RNA-dependent RNA polymerase (RdRp), and NS5 (VPg), the protein primer; expressed in transfected cells; host or cells: HEK293T or Huh 7
Experimental: as §1
(§2) Where inhibitors were added to the cells for the 5BR assay, they were added 2 h after transfection of the plasmids. […]

RIG-I signaling = RIG-I signaling in the absence of the NV polymerase; type: cell-based, human; details: absence of the NV polymerase (data not shown)
Experimental: as §1, with “Vt.). […]” for “Vt.).”

[2] = molecular target: GII.4 polymerase-VPg complex; experiment: 5BR reporter assay, GII.4 polymerase-VPg complex; type: cell-based, Human Norovirus
Experimental: as §1, §2

| Compound | effect in the DSF assay ([1]; recombinant GII.4 polymerase) | effect on GII.4 polymerase 5BR assay readout (screen) (GII.4 NV polymerase) | concentration at which the thermal denaturation profile starts to shift ([1]; nucleoside form) [µM] | shift of thermal denaturation profile (apparent Tm) of GII.4 polymerase ([1]; absence of VPg, apparent Tm of polymerase alone ~43.5° C.) | pEC50 (MNV polymerase) | effect on RIG-I signaling (RIG-I signaling) | pEC50 ([2]; 5BR assay, VPg co-expressed, read-out: EC50 with GII.4 polymerase-VPg complex) | pEC50 ([2]; library screen, read-out: EC50, inhibitor of human norovirus polymerase-VPg complex) | pEC50 (GII.4 NV polymerase; 5BR assay, polymerase alone (no VPg), read-out: EC50, inhibition of GII4 polymerase) | pEC50 (GII.4 NV polymerase; HEK293T cells, 5BR assay, read-out: effective concentration for inhibition) | inhibition of GII.4 NV polymerase activity in Huh7 cells (GII.4 NV polymerase; Huh7 cells, 5BR assay, GII.4 VP1 co-expressed, FIG. 6C) |
| --- | --- | --- | --- | --- | --- | --- | --- | --- | --- | --- | --- |
| CCc1cc(CC[C@]2(C3CCCC3)CC(O)=C(Cc3nc4nc(C)cc(C)n4n3)C(=O)O2)cc(CC)n1 [Filibuvir] | no effect | no effect; also recorded: did not affect | – | – | – | – | – | – | – | – | – |
| NC(=O)c1ncn([C@@H]2O[C@H](CO)[C@@H](O)[C@H]2O)n1 [Ribavirin] | – | modest inhibitory effect | 1 | – | – | – | – | – | – | – | – |
| VX-222 | – | – | – | more than 4.5 °C | ~4.82 | did not affect | 6.05 | > 6.00 | ~4.82 | ~7.00 | concentration-dependent inhibition |
